The target in one test is T1, chemokine receptor CCR3 (Homo sapiens, UniProt P51677).
T1 sequence (P51677 1-355): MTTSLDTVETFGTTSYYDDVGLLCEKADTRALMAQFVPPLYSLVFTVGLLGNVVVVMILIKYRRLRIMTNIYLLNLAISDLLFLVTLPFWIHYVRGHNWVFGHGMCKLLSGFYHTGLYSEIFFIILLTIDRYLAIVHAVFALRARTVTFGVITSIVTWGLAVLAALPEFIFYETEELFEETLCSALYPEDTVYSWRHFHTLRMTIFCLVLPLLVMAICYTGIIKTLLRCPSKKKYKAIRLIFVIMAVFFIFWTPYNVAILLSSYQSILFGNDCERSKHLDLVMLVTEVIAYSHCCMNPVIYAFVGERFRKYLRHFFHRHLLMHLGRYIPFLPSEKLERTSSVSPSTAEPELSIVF
The experiment in a line: Affinity to chemokine receptor CCR3. Type of test: binding. Conditions: at a concentration of 10 μM. From the text: Although the compounds of the present invention are novel compounds, compounds having a partly similar skeleton are described, for example, in Published Japanese Translation of PCT International Application No. 2003-507456, WO 01/79170 and WO 00/23076.

Test [1] has as its system mixture of human vascular endothelial cells and fibroblasts. The experiment in a line: Test Example 2: ability to promote angiogenesis (angiogenesis test kit KZ-1000). Type of test: cell-based. As to conditions: Homo sapiens, 216 h; Compound Conc. = 3 μM; lumen length, % of control, day 9; read-out: Promotion of angiogenesis (%). A digest of the protocol: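 Co-culture of human endothelial cells and fibroblasts; compound added on days 1, 4 and 7, CD31 immunostaining on day 9. Lumen length quantified from images and expressed as % of untreated control; 120 used as activity threshold.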

Test [2] deals with microsphere (micro-embolism) model. The experiment in a line: Test Example 6: rat microsphere (micro-embolism) model. Type of test: in vivo, Crl:CD(SD) rats. As to conditions: rats, oral 1.0 mg/kg once daily for 10 days (Compound 65 also 0.1 mg/kg); 2 weeks after surgery. From the text: According to the method of Ichiro Date et al. [Journal of Neuroscience Research 78; 442-453 (2004)], 8-week-old male Crl:CD(SD) rats were used. Animals were anesthetized with halothane and midline incision was made. Right carotid artery was separated and a thread was looped around the common carotid artery and external carotid artery. The pterygopalatine artery was temporarily clipped with an aneurysm clip. The blood flow through the common carotid artery and external carotid artery was temporarily interrupted and 0.1 mL of a microsphere suspension composed of microspheres dispersed in a 30% sucrose solution (1800 microspheres/0.1 mL) was injected into the common carotid artery. After injection of the suspension, the puncture of the injection needle was filled with instant glue while the blood flow was interrupted. The blood flow was then restored and the surgical wound was sutured. Neurological symptoms were observed the day following the surgery. The animals were assigned to each treated group at random with respect to the measurements of neurological symptoms, the decrease in body weight from the previous day, and the body weight on that day.
The test compounds used were Example Compound 65, 108, 130, 135 and 137, each of which was administered at a dose of 1.0 mg/kg. Example Compound 65 was administered also at a dose of 0.1 mg/kg. Each compound was orally administered once daily for 10 days starting from the following day of the surgery. Coordinated motor functions were measured 5 times on an accelerated rota-rod (4 to 40 rpm/5 min) 2 weeks after the surgery.
Specifically, FIGS. 11 to 15 show the effect of different compounds 2 weeks after the microsphere injection (rota-rod test standard parameter). The figures show the results of rota-rod tests 2 weeks after the ischemic event in which each compound was orally administered at 1.0 mg/kg once daily for 10 days (Example Compound 65 was administered at 0.1 mg/kg or 1.0 mg/kg). What is shown in the figures is the total time of the 5 measurements on rota-rod as a standard parameter.
***: p<0.0001, Dunnett's multiple range test vs. Vehicle.

From patent US8592435B2, “Nitrogen-containing six-membered aromatic ring derivatives and pharmaceutical products containing the same” (Daiichi Sankyo Company, Limited, priority 2007, dated 2013) come the findings set out here.

In the case of `Cc1nc(OCC(=O)N(C)C2CCN(Cc3ccccc3)CC2)nc(C)c1N` [Compound 65, 2-(5-amino-4,6-dimethylpyrimidine-2-yloxy)-N-(1-benzylpiperidine-4-yl)-N-methylacetamide], on chemokine receptor CCR3, the “affinity to chemokine receptor CCR3” value was determined as 0.0%. In test [1], the activity at 3 µM worked out at 170%. Moreover, the “coordinated motor functions, total time of 5 measurements on rota-rod” value in test [2] is “highly effective in ameliorating ischemic cerebral infarction”.
